Source: US10780090B2, “Heteroaryl compounds useful as inhibitors of SUMO activating enzyme” (Millennium Pharmaceuticals, Inc., priority 2014, dated 2020)

Molecular target: recombinant human SAE enzyme (Homo sapiens (Human), UniProt Q9UBT2)
Assay: SAE HTRF enzyme assay
Assay type: biochemical
Details: for inhibition at 0.111 µM: read-out: Percent Inhibition
Summary of the method: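 Human SAE (0.11 nM) with 0.5 μM ATP, 0.125 μM Sumo-Flag and 0.01 μM Ubc9-GST in HEPES pH 7.5, 5 mM MgCl2, 250 μM GSH; 105 min at 24 °C. Stopped with EDTA; HTRF read after 2 h with Eu-anti-Flag and APC-anti-GST. Percent inhibition or IC50 reported.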

[1] = SAE inhibition at compound concentration 0.111 μM
[2] = SAE inhibition, class symbols, legend in nM

Chain of recombinant human SAE enzyme (Q9UBT2 whole entry): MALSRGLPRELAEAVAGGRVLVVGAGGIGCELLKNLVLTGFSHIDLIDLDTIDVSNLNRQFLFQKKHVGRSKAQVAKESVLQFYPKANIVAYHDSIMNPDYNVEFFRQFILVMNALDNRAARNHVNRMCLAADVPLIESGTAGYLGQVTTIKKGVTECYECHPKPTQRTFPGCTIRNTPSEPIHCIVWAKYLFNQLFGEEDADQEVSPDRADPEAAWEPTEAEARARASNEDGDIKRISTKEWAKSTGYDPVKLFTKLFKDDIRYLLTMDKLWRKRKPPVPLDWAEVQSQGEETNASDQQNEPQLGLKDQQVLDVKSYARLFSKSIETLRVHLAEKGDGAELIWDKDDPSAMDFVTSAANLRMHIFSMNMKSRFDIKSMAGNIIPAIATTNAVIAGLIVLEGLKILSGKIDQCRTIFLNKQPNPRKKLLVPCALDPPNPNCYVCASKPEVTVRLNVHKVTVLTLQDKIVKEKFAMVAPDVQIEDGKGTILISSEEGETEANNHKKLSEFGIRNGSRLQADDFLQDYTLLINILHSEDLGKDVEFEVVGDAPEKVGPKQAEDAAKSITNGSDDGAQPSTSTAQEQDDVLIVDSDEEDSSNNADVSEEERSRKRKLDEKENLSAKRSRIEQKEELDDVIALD
Chain of recombinant human SAE enzyme (Q9UBE0 whole entry partner): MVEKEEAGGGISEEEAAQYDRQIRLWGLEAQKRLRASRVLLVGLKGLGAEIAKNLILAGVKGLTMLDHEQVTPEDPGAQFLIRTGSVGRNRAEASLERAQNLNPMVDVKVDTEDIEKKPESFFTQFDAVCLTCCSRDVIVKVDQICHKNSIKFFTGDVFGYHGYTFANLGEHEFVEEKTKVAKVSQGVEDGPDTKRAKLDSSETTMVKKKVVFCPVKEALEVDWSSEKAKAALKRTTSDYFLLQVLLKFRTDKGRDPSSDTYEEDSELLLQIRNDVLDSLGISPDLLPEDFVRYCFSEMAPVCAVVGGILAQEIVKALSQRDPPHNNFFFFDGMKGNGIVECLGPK

| SMILES | Percent Inhibition (Concentration 0.111 μM) | IC50 (class symbols A/B/C) | inhibition at 0.111 µM (Concentration 0.111 μM) | Percent Inhibition [1] | IC50 [2] |
| --- | --- | --- | --- | --- | --- |
| Cc1sc(C(=O)c2cncnc2NC2CC(O)C(COS(N)(=O)=O)C2)cc1[S+]([O-])c1ccccc1 (mixture of isomers) [I-68, [(1R,2S,4R)-2-hydroxy-4-{[5-({5-methyl-4-[(R)-phenylsulfinyl]-2-thienyl}carbonyl)pyrimidin-4-yl]amino}cyclopentyl]methyl sulfamate and [(1R,2S,4R)-2-hydroxy-4-{[5-({5-methyl-4-[(S)-phenylsulfinyl]-2-thienyl}carbonyl)pyrimidin-4-yl]amino}cyclopentyl]methyl sulfamate] | 98 | < 10 nM |  |  |  |
| NS(=O)(=O)OC[C@H]1C[C@@H](Nc2ncncc2C(=O)c2ccc(Cc3cccc(Br)c3)o2)C[C@@H]1O [I-82, [(1R,2S,4R)-4-({5-[5-(3-bromobenzyl)-2-furoyl]pyrimidin-4-yl}amino)-2-hydroxycyclopentyl]methyl sulfamate] |  |  | 99% |  |  |
| NS(=O)(=O)OC[C@H]1C[C@@H](Nc2ncncc2C(=O)c2cc([C@@H]3OCCc4ccc(F)cc43)cs2)C[C@@H]1O (single isomer, unassigned) [I-267, [(1R,2S,4R)-4-{[5-({4-[(1R)-7-Fluoro-3,4-dihydro-1H-isochromen-1-yl]-2-thienyl}carbonyl)pyrimidin-4-yl]amino}-2-hydroxycyclopentyl]methyl sulfamate or [(1R,2S,4R)-4-{[5-({4-[(1S)-7-Fluoro-3,4-dihydro-1H-isochromen-1-yl]-2-thienyl}carbonyl)pyrimidin-4-yl]amino}-2-hydroxycyclopentyl]methyl sulfamate] | 97 | < 10 nM |  |  |  |
| NS(=O)(=O)OC[C@H]1C[C@@H](Nc2ncncc2C(=O)c2cc([C@H](O)c3cccc(Cl)c3)co2)C[C@@H]1O (single isomer, unassigned) [I-42b, {(1R,2S,4R)-4-[(5-{4-[(R)-(3-chlorophenyl)(hydroxy)methyl]-2-furoyl}pyrimidin-4-yl)amino]-2-hydroxycyclopentyl}methyl sulfamate or {(1R,2S,4R)-4-[(5-{4-[(S)-(3-chlorophenyl)(hydroxy)methyl]-2-furoyl}pyrimidin-4-yl)amino]-2-hydroxycyclopentyl}methyl sulfamate] | 99 | < 10 nM |  |  |  |
| Cc1sc(C(=O)c2cncnc2N[C@@H]2C[C@H](COS(N)(=O)=O)[C@@H](O)C2)cc1[C@@H]1OCCc2cccnc21 (single isomer, unassigned) [I-285b, [(1R,2S,4R)-4-{[5-({4-[(8S)-5,8-dihydro-6H-pyrano[3,4-b]pyridin-8-yl]-5-methyl-2-thienyl}carbonyl)pyrimidin-4-yl]amino}-2-hydroxycyclopentyl]methyl sulfamate or [(1R,2S,4R)-4-{[5-({4-[(8R)-5,8-dihydro-6H-pyrano[3,4-b]pyridin-8-yl]-5-methyl-2-thienyl}carbonyl)pyrimidin-4-yl]amino}-2-hydroxycyclopentyl]methyl sulfamate] |  |  |  | 44% | 100 to 1000 nM |
| NS(=O)(=O)OC[C@H]1C[C@@H](Nc2ncncc2C(=O)c2cc(C3(c4cccc(Cl)c4)CCCO3)cs2)C[C@@H]1O (single isomer, unassigned) [I-20a, [(1R,2S,4R)-4-{[5-({4-[(2S)-2-(3-chlorophenyl)tetrahydrofuran-2-yl]-2-thienyl}carbonyl)pyrimidin-4-yl]amino}-2-hydroxycyclopentyl]methyl sulfamate or [(1R,2S,4R)-4-{[5-({4-[(2R)-2-(3-chlorophenyl)tetrahydrofuran-2-yl]-2-thienyl}carbonyl)pyrimidin-4-yl]amino}-2-hydroxycyclopentyl]methyl sulfamate] | 81 | 10 to 100 nM |  |  |  |
| C#Cc1ccc2c(c1)[C@H](c1cc(C(=O)c3cncnc3N[C@@H]3C[C@H](COS(N)(=O)=O)[C@@H](O)C3)sc1C)OCC2 (single isomer, unassigned) [I-252b, [(1R,2S,4R)-4-{[5-({4-[(1R)-7-ethynyl-3,4-dihydro-1H-isochromen-1-yl]-5-methyl-2-thienyl}carbonyl)pyrimidin-4-yl]amino}-2-hydroxycyclopentyl]methyl sulfamate or [(1R,2S,4R)-4-{([5-({4-[(1S)-7-ethynyl-3,4-dihydro-1H-isochromen-1-yl]-5-methyl-2-thienyl}carbonyl)pyrimidin-4-yl]amino}-2-hydroxycyclopentyl]methyl sulfamate] | 98 | < 10 nM |  |  |  |
| NS(=O)(=O)OC[C@H]1C[C@@H](Nc2ncncc2C(=O)c2cc([C@H](O)c3ccc(Cl)s3)c(Cl)s2)C[C@@H]1O (mixture of isomers) [I-103, [(1R,2S,4R)-4-{[5-({5-chloro-4-[(S)-(5-chloro-2-thienyl)(hydroxy)methyl]-2-thienyl}carbonyl)pyrimidin-4-yl]amino}-2-hydroxycyclopentyl]methyl sulfamate and [(1R,2S,4R)-4-{[5-({5-chloro-4-[(R)-(5-chloro-2-thienyl)(hydroxy)methyl]-2-thienyl}carbonyl)pyrimidin-4-yl]amino}-2-hydroxycyclopentyl]methyl sulfamate] | 96 | < 10 nM |  |  |  |
| NS(=O)(=O)OC[C@H]1C[C@@H](Nc2ncncc2C(=O)c2cc([C@H]3OCCc4ccc(Cl)cc43)cs2)C[C@@H]1O (mixture of isomers) [I-261, [(1R,2S,4R)-4-{[5-({4-[(1R)-7-chloro-3,4-dihydro-1H-isochromen-1-yl]-2-thienyl}carbonyl)pyrimidin-4-yl]amino}-2-hydroxycyclopentyl]methyl sulfamate and [(1R,2S,4R)-4-{[5-({4-[(1S)-7-chloro-3,4-dihydro-1H-isochromen-1-yl]-2-thienyl}carbonyl)pyrimidin-4-yl]amino}-2-hydroxycyclopentyl]methyl sulfamate] | 99 | < 10 nM |  |  |  |
| Cc1sc(C(=O)c2cncnc2N[C@@H]2C[C@H](COS(N)(=O)=O)[C@@H](O)[C@H]2O)cc1[C@@H]1NCCc2ccc(Br)cc21 (single isomer, unassigned) [I-247b, [(1R,2R,3S,4R)-4-{[5-({4-[(1R)-7-bromo-1,2,3,4-tetrahydroisoquinolin-1-yl]-5-methyl-2-thienyl}carbonyl)pyrimidin-4-yl]amino}-2,3-dihydroxycyclopentyl]methyl sulfamate or [(1R,2R,3S,4R)-4-{[5-({4-[(1S)-7-bromo-1,2,3,4-tetrahydroisoquinolin-1-yl]-5-methyl-2-thienyl}carbonyl)pyrimidin-4-yl]amino}-2,3-dihydroxycyclopentyl]methyl sulfamate] | 98 | < 10 nM |  |  |  |
| Cc1sc(C(=O)c2cncnc2N[C@@H]2C[C@H](COS(N)(=O)=O)[C@@H](O)C2)cc1[C@H]1OCC(F)(F)c2ccc(Cl)nc21 (single isomer, unassigned) [I-260b, [(1R,2S,4R)-4-{[5-({4-[(8R)-2-chloro-5,5-difluoro-5,8-dihydro-6H-pyrano[3,4-b]pyridin-8-yl]-5-methyl-2-thienyl}carbonyl)pyrimidin-4-yl]amino}-2-hydroxycyclopentyl]methyl sulfamate or [(1R,2S,4R)-4-{[5-({4-[(8S)-2-chloro-5,5-difluoro-5,8-dihydro-6H-pyrano[3,4-b]pyridin-8-yl]-5-methyl-2-thienyl}carbonyl)pyrimidin-4-yl]amino}-2-hydroxycyclopentyl]methyl sulfamate] | 98 | < 10 nM |  |  |  |
| NS(=O)(=O)OC[C@H]1C[C@@H](Nc2ncncc2C(=O)c2cc(C3SCCc4ccc(Cl)cc43)cs2)C[C@@H]1O (single isomer, unassigned) [I-320b, [(1R,2S,4R)-4-{[5-({4-[(1R)-7-chloro-3,4-dihydro-1H-isothiochromen-1-yl]-2-thienyl}carbonyl)pyrimidin-4-yl]amino}-2-hydroxycyclopentyl]methyl sulfamate or [(1R,2S,4R)-4-{[5-({4-[(1S)-7-chloro-3,4-dihydro-1H-isothiochromen-1-yl]-2-thienyl}carbonyl)pyrimidin-4-yl]amino}-2-hydroxycyclopentyl]methyl sulfamate] |  |  |  | 93% | < 10 nM |
| Cc1sc(C(=O)c2cncnc2N[C@@H]2C[C@H](COS(N)(=O)=O)[C@@H](O)C2)cc1CN1CCc2cccnc21 [I-171, {(1R,2S,4R)-4-[(5-{[4-(2,3-dihydro-1H-pyrrolo[2,3-b]pyridin-1-ylmethyl)-5-methyl-2-thienyl]carbonyl}pyrimidin-4-yl)amino]-2-hydroxycyclopentyl}methyl sulfamate] |  | 10 to 100 nM | 90% |  |  |
| Cc1sc(C(=O)c2cncnc2N[C@@H]2C[C@H](COS(N)(=O)=O)[C@@H](O)C2)cc1[C@H](N)c1cccc(Cl)c1 (single isomer, unassigned) [I-6b, [(1R,2S,4R)-4-{[5-({4-[(R)-amino(3-chlorophenyl)methyl]-5-methyl-2-thienyl}carbonyl)pyrimidin-4-yl]amino}-2-hydroxycyclopentyl]methyl sulfamate or [(1R,2S,4R)-4-{[5-({4-[(S)-amino(3-chlorophenyl)methyl]-5-methyl-2-thienyl}carbonyl)pyrimidin-4-yl]amino}-2-hydroxycyclopentyl]methyl sulfamate] | 98 | < 10 nM |  |  |  |
| Cc1sc(C(=O)c2cncnc2N[C@@H]2C[C@H](COS(N)(=O)=O)[C@@H](O)C2)cc1[C@H]1NCCc2ccc(Br)cc21 (single isomer, unassigned) [I-248b, [(1R,2S,4R)-4-{[5-({4-[(1S)-7-bromo-1,2,3,4-tetrahydroisoquinolin-1-yl]-5-methyl-2-thienyl}carbonyl)pyrimidin-4-yl]amino}-2-hydroxycyclopentyl]methyl sulfamate or [(1R,2S,4R)-4-{[5-({4-[(1R)-7-bromo-1,2,3,4-tetrahydroisoquinolin-1-yl]-5-methyl-2-thienyl}carbonyl)pyrimidin-4-yl]amino}-2-hydroxycyclopentyl]methyl sulfamate] | 95 | < 10 nM |  |  |  |
